# Assay results reported in US20210161999A1, “COMPOSITIONS AND METHODS RELATED TO OVERCOMING INNATE IMMUNE BARRIERS TO CANCER IMMUNOTHERAPY” (Health Research, Inc., priority 2018, published 2021).
# Entries after “also recorded” stand apart in the source; their conditions may differ.
# Legend:
# [1] = test system: PMN suppressor phenotype (suppression of anti-CD3/CD28-stimulated T cell proliferation); assay: Coculture of PMN with ascites supernatants and anti-CD3/CD28-stimulated T cells; T cell proliferation by [3H] thymidine incorporation; format: cell-based, human
# Experimental: Freshly isolated T cells (1e5) were stimulated with anti-CD3/CD28 Dynabeads (2.5 μl; Thermo Fisher Scientific) and cocultured with autologous PMN (1:1) and ascites supernatants (50% final well volume) in an incubator at 37° C., 5% CO2. After 72 h, [^3H] thymidine (1 μCi per well) was added and allowed to incorporate for 16-18 h. Cells were harvested onto a Filtermat and counted on a Beta counter. Results are expressed as net cpm [calculated by subtracting the average cpm of unstimulated T cells from the average cpm of stimulated T cells].
# Where indicated, T cells, PMN, and ascites supernatants underwent various pretreatments. Where indicated, T cells were pretreated for lh with neutralizing antibody against ICAM-I (1-10 μg), IgG1 isotype (1-10 μg), or media (RPMI 1640, 5-10% heat-inactivated FBS, HEPES, sodium pyruvate, non-essential amino acids, and penicillin-streptomycin).
# Where indicated, PMN were pretreated for lh with neutralizing antibody against CD11b (1-10 μg), TGF-beta receptor 1 (1-10 μg) or IgG1 isotype (1-10 μg); thapsigargin (THG, 0.5-2 μM), diphenyleneiodonium (DPI, 1-25 μM), N-Formylmethionine-leucyl-phenylalanine (fMLF, 1-100 nM), brefeldin-A (1-10 μg/mL), ER export inhibitor 1 (Exol, 20-75 μM), CI-amidine (10-20 μM), SNARE decoys: TAT-SNAP23 (0.6-0.9 μg/mL), TAT-SYN4 (0.6-0.9 μg/mL), TAT-GST (0.6-0.9 μg/mL) (produced as described in the laboratory of Dr. Kenneth McLeish), puromycin and actinomycin-D (1-5 μg/mL), or with media.
# Where indicated, ascites supernatants were pretreated with heat (56° C., lh) to denature heat-labile constituents or proteinase-K (100 μM, 37° C., 12 h) to degrade proteins. Two formulations of compstatin, a peptide C3 inhibitor, were used: CS (250 μM, 30° C., 2 h, Tocris) and Cp40 (1.25-20 μM, 30° C., 2 h), as well as a scramble peptide. In separate studies, ascites supernatants were ultra-centrifuged (100,000g, 4° C., 1.5 h) to separate the membrane-rich (MR-ASC) and membrane-depleted (MD-ASC) fractions. In others, ascites supernatants were pretreated for lh with neutralizing antibody against C5 (0.5-1.0 μg, A217; Quidel, San Diego, Calif.) or C7 (0.5-1.0 μg, A221; Quidel) or IgG1 isotype (0.5-1.0 μg), or with OmCI (0.6-1.2 μM), a peptide C5 inhibitor derived from the saliva of Ornithodoros moubata (35, 36).
# T cells = assay: Surface expression of PD-1, LAG-3 and CTLA-4 on stimulated T cells after coculture (flow cytometry); format: cell-based, human; settings: coculture with Cp40-ASC and PMN, compared to unstimulated (n=6)
# Experimental: FIG. 6. Combination of ascites and PMN prevents T cell activation and is independent of exhaustion. T cells (CD3^+) and PMN were used in autologous coculture at 1:1. PMN and/or ascites supernatants (ASC; 50% final well volume) were added to anti-CD3/CD28-stimulated T cells. At 24, 48, and 72 h, T cells were analyzed for surface and intracellular expression of markers for activation, co-stimulation, and function. Surface expression of A) CD62L, B) CD69, C) CD4OL, and D) CD107a were evaluated at baseline (on y-axis) and at 24, 48, and 72 h (n=2). E-M) PD-1, LAG-3, and CTLA-4 expression was evaluated (n=4). CD8^+ T cells at 72 h are represented here in representative MFI overlays (E-G) and quantification (H-J); unstimulated T cells in media, grey solid; anti-CD3/CD28-stimulated, black dashed line; anti-CD3/CD28-stimulated+PMN, purple solid line; anti-CD3/CD28-stimulated+ASC, orange solid line; anti-CD3/CD28-stimulated+ASC+PMN, green solid line. […] N) At 72 h, intracellular expression of IFN-gamma was reduced as compared to stimulated alone (n=3). O-P) Combination of ASC and PMN reduced anti-CD3/CD28-stimulated T cell IL-2 levels (pg/mL) in supernatants to ND after 24 (O) and 72 h (P) of coculture (n=4). Background levels of PMN or ASC were ND; ND=non-detectable. Q) CTL activity of NY-ESO-1157-165-specific CD8^+ T cells directed at SK29 target cells pulsed with the NY-ESO-1 peptide was unaffected by coculture with ASC and/or PMN (n=3). Symbols represent individual samples (n) and bars represent SEM. Statistical comparisons were by Mann-Whitney (*, p<0.05; **, p<0.01; ***, p<0.001; ns, not significant). Results were consistent between CD4^+ and CD8^+ T cells.
# Data were analyzed using FCS Express 6.
# Fc receptors were blocked to prevent non-specific antibody binding prior to staining (15 min, 4° C.; anti-mouse CD16/CD32, clone 2.4G2; BD Biosciences). For phenotyping of PMN, antibodies targeted to human CD45 (clone REA747), CD15 (VIMC6) (Miltenyi Biotec, Inc.), CD63 (H5C6), CD66b (G10F5), and CD35 (Ell) (Biolegend) were used. […]
smiles,measurement,setting,value
CC[C@H](C)[C@H](NC(=O)[C@H](N)Cc1ccc(O)cc1)C(=O)N[C@H]1CSSC[C@@H](C(=O)N(C)[C@H](C(N)=O)[C@@H](C)CC)NC(=O)[C@H](CCCNC(=N)N)NC(=O)[C@H](Cc2c[nH]cn2)NC(=O)[C@H](C)NC(=O)CN(C)C(=O)[C@H](Cc2c[nH]c3ccccc23)NC(=O)[C@H](CC(=O)O)NC(=O)[C@H](CCC(N)=O)NC(=O)[C@H](Cc2cn(C)c3ccccc23)NC(=O)[C@H](C(C)C)NC1=O [Cp40],effect on PMN suppressor phenotype,"[1]; added to ASC 2 h prior to coculture with PMN and T cells, CS 250 μM, Cp40 20 μM, scramble peptide 20 μM",completely abrogated the PMN suppressor phenotype; also recorded: fully abrogated the PMN suppressor phenotype; also recorded: completely abrogated the neutrophil suppressor phenotype
same,Cp40 concentration sufficient to abrogate the PMN suppressor phenotype,"[1]; concentration-titration study, FIG. 15B",2.5-20 ∥M
same,Cp40 concentration sufficient to fully abrogate the PMN suppressor phenotype,"[1]; titration study, ASC pretreated (n=3)",5 µM
same,CTLA-4 expression on stimulated T cells,T cells,showed an upwards trend; also recorded: upregulated relative to unstimulated T cells
same,LAG-3 expression on stimulated T cells,T cells,unaffected; also recorded: did not result in upregulation
same,PD-1 expression on stimulated T cells,T cells,unaffected; also recorded: did not result in upregulation
